In patent US7414107B2, “Pharmacologically active peptide conjugates having a reduced tendency towards enzymatic hydrolysis” (priority 1998, dated 2008):

How the values were obtained:
PTH (1-34)-antibody = conditions: EIAS(h)-6101 from Peninsula Laboratories; cited from earlier work
leucine aminopeptidase = target: T1, leucine aminopeptidase (Sus scrofa, UniProt P28839); assay: Hydrolysis kinetics in leucine aminopeptidase solution; assay type: in vitro ADME, porcine; conditions: 50 mM phosphate buffer pH 7.4, 37° C., leucine aminopeptidase 25 U/ml; for half-life: pig
T1 construct: purchased Sigma, UK type III-CP (catalogue number not given); host or cells: porcine kidney
T1 sequence (P28839 1-519): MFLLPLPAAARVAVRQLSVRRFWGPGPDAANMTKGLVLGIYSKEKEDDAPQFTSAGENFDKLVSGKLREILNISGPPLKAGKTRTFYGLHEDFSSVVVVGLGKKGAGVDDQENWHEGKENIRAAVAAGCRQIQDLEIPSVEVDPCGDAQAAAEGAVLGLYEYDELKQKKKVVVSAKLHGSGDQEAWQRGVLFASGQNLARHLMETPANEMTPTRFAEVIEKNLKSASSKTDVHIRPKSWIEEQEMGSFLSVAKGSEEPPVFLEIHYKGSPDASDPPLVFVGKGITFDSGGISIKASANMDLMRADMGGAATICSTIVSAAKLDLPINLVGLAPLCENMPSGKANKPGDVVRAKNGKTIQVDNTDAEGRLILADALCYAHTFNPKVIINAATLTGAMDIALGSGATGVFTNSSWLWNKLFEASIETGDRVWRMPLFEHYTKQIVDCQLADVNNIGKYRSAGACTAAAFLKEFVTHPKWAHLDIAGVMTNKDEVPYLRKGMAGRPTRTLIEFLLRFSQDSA
Procedure: (§1) Carboxypeptidase A (EC 3.4.17.1) type I from bovine pancreas, leucine aminopeptidase (EC 3.4.11.1) type III-CP from porcine kidney, α-chymotrypsin (EC […]) from bovine pancreas, and pepsin A (EC 3.4.23.1) from porcine stomach mucosa […] were obtained from Sigma, UK.
(§2) Gradient HPLC analysis of samples from in vitro kinetic measurements performed as described below was performed using a Hewlett Packard HP 1100 HPLC system consisting of a HP 1100 Binary Pump, a HPI 100 Autosampler, a HPI 100 Column Thermostat and a HP 1100 Variable Wavelength Detector. A Merck LiChroCART column (125×4 mm I.D.) and a LiChroCART precolumn (4×4 mm I.D.) packed with Lichrospher RP-18 (5 .μum particles) was used. The column was kept at 25° C. or 75° C. and the column effluent was measured by UV detection at 215 run. Separation of the peptide conjugates or the native peptides from degradation products and constituents of the reaction solutions was accomplished using gradient elution of the column with mixtures of mobile phase A (0.1 vol % TFA in water) and mobile phase B (0.085 vol % TFA in acetonitrile) at a flow rate of 1 ml/min.
(§3) The degradation of the peptide conjugate and the corresponding native peptide were studied at 37° C. in a 50 mM phosphate buffer solution at pH 7.4 containing leucine arninopeptidase (25 U/ml) or carboxypeptidase A (1 or 25 U/ml). Experiments were initiated by addition of an aliquot (100 μl) of a stock solution (1 mg/ml) of the peptide conjugate or the native peptide to 900 μl preheated enzyme solution giving a final concentration of ˜0.1 mg/ml (10^−5-10^−4M) of the peptide conjugate or the native peptide. The peptide/enzyme solution was kept at 37° C. using a SHT200D block heater from Stuart Scientific. At appropriate time intervals, samples of 100 μl were withdrawn from the peptide/enzyme solution, mixed thoroughly with 20 μl 25% TFA in acetonitrile in order to stop the enzymatic degradation process and analysed by HPLC as described above. Half-lives (t1/2) for the peptide conjugate and the corresponding native peptide in the enzyme solutions were calculated from plots of the natural logarithm to the concentration of the residual peptide (HPLC peak heights) against time using the formula t/2=1/kobs×ln(2), where kobs is the apparent first-order rate constant for the observed degradation.

osteoblast = assay: Osteoblast retraction assay; assay type: cell-based, mice; conditions: for Retraction assay % Retracted cells: 10 nM, 1 h, mouse calvaria osteoblasts; for activity relative to the mother compound hPTH(1-34): Osteoblast retraction assay
Procedure: Retraction assays were performed with osteoblast prepared from calvaria of 1-day old mice according to published protocols (Miller et al., 1976, Science 192:1340-1343). In brief, osteoblasts were seeded in serum-free minimal essential medium-α (αMEM) at a density of 3000 cells per cm^2 into 96-well tissue culture plates coated with 50 μg/ml of type I collagen in phosphate-buffered saline containing 0.1% bovine serum albumin (PBS). One day after plating, PTH compounds were added to a final concentration of 10 nM and incubation was carried out for 1 h. Cells were then fixed and stained with toluidine blue, and the number of retracted cells was counted by visual inspection.

carboxypeptidase A = target: T2, carboxypeptidase A (Bos taurus, UniProt P00730); assay: Hydrolysis kinetics in carboxypeptidase A solution; assay type: in vitro ADME, bovine; conditions: 50 mM phosphate buffer pH 7.4, 37° C., carboxypeptidase A 1 U/ml
T2 construct: purchased Sigma, UK type I (catalogue number not given); host or cells: bovine pancreas
T2 sequence (P00730 111-419): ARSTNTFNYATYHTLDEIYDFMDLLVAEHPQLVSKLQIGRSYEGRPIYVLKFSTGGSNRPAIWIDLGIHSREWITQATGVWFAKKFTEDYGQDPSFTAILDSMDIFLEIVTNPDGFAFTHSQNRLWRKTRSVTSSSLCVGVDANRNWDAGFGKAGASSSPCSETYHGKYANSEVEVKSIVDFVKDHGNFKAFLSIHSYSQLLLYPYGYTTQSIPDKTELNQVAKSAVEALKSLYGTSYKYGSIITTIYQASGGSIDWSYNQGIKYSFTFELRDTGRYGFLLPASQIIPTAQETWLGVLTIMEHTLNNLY
Procedure: as §1, §2, §3

Compound | Specificity of the assay (PTH (1-34)-antibody) [%] | pseudo first-order rate constant for the degradation (leucine aminopeptidase) [min⁻¹] | half-life (leucine aminopeptidase) [h] | Retraction assay % Retracted cells (osteoblast) [%] | activity relative to the mother compound hPTH(1-34) (osteoblast) [%] | half-life (carboxypeptidase A) [h] | pseudo first-order rate constant for the degradation (carboxypeptidase A) [min⁻¹]
hPTH(1-44): human PTH fragment listed in the EIA kit specificity (SVSEIQLMHNLGKHLNSMERVEWLRKKLQDVHNFVALGAPLAPR; Parathyroid hormone; UniProt P01270 32-75, looked up, fragment) | 0 |  |  |  |  |  | 
hPTH(1-38): human PTH fragment listed in the EIA kit specificity (SVSEIQLMHNLGKHLNSMERVEWLRKKLQDVHNFVALG; Parathyroid hormone; UniProt P01270 32-69, looked up, fragment) | 100 |  |  |  |  |  | 
CC[C@H](C)[C@H](NC(=O)[C@H](CCC(=O)O)NC(=O)[C@H](CO)NC(=O)[C@@H](NC(=O)[C@H](CO)NC(=O)[C@H](CCCCN)NC(=O)[C@H](CCCCN)NC(=O)[C@H](CCCCN)NC(=O)[C@H](CCCCN)NC(=O)[C@H](CCCCN)NC(=O)[C@@H](N)CCCCN)C(C)C)C(=O)N[C@@H](CCC(N)=O)C(=O)N[C@@H](CC(C)C)C(=O)N[C@@H](CCSC)C(=O)N[C@@H](Cc1c[nH]cn1)C(=O)N[C@@H](CC(N)=O)C(=O)N[C@@H](CC(C)C)C(=O)NCC(=O)N[C@@H](CCCCN)C(=O)N[C@@H](Cc1c[nH]cn1)C(=O)N[C@@H](CC(C)C)C(=O)N[C@@H](CC(N)=O)C(=O)N[C@@H](CO)C(=O)N[C@@H](CCSC)C(=O)N[C@@H](CCC(=O)O)C(=O)N[C@@H](CCCNC(=N)N)C(=O)N[C@H](C(=O)N[C@@H](CCC(=O)O)C(=O)N[C@@H](Cc1c[nH]c2ccccc12)C(=O)N[C@@H](CC(C)C)C(=O)N[C@@H](CCCNC(=N)N)C(=O)N[C@@H](CCCCN)C(=O)N[C@@H](CCCCN)C(=O)N[C@@H](CC(C)C)C(=O)N[C@@H](CCC(N)=O)C(=O)N[C@@H](CC(=O)O)C(=O)N[C@H](C(=O)N[C@@H](Cc1c[nH]cn1)C(=O)N[C@@H](CC(N)=O)C(=O)N[C@@H](Cc1ccccc1)C(=O)O)C(C)C)C(C)C [(Lys)6-PTH(1-34)(Human)-OH, H-(Lys)6-(-Ser-Val-Ser-Glu-Ile-Gln-Leu-Met-His-Asn-Leu -Gly-Lys-His-Leu-Asn-Ser-Met-Glu-Arg-Val-Glu-Trp-Leu-Arg-Lys-Lys-Leu-Gln -Asp-Val-His-Asn-Phe-OH] |  | 0.0035 | 3.3 | 34.7 | 49 |  | 
CC[C@H](C)[C@H](NC(=O)[C@H](CCC(=O)O)NC(=O)[C@H](CO)NC(=O)[C@@H](NC(=O)[C@@H](N)CO)C(C)C)C(=O)N[C@@H](CCC(N)=O)C(=O)N[C@@H](CC(C)C)C(=O)N[C@@H](CCSC)C(=O)N[C@@H](Cc1c[nH]cn1)C(=O)N[C@@H](CC(N)=O)C(=O)N[C@@H](CC(C)C)C(=O)NCC(=O)N[C@@H](CCCCN)C(=O)N[C@@H](Cc1c[nH]cn1)C(=O)N[C@@H](CC(C)C)C(=O)N[C@@H](CC(N)=O)C(=O)N[C@@H](CO)C(=O)N[C@@H](CCSC)C(=O)N[C@@H](CCC(=O)O)C(=O)N[C@@H](CCCNC(=N)N)C(=O)N[C@H](C(=O)N[C@@H](CCC(=O)O)C(=O)N[C@@H](Cc1c[nH]c2ccccc12)C(=O)N[C@@H](CC(C)C)C(=O)N[C@@H](CCCNC(=N)N)C(=O)N[C@@H](CCCCN)C(=O)N[C@@H](CCCCN)C(=O)N[C@@H](CC(C)C)C(=O)N[C@@H](CCC(N)=O)C(=O)N[C@@H](CC(=O)O)C(=O)N[C@H](C(=O)N[C@@H](Cc1c[nH]cn1)C(=O)N[C@@H](CC(N)=O)C(=O)N[C@@H](Cc1ccccc1)C(=O)N[C@@H](CCCCN)C(=O)N[C@@H](CCCCN)C(=O)N[C@@H](CCCCN)C(=O)N[C@@H](CCCCN)C(=O)N[C@@H](CCCCN)C(=O)N[C@@H](CCCCN)C(=O)O)C(C)C)C(C)C [PTH(1-34)(Human)-(Lys)6-OH, H-Ser-Val-Ser-Glu-Ile-Gln-Leu-Met-His-Asn-Leu-Gly-Lys -His-Leu-Asn-Ser-Met-Glu-Arg-Val-Glu-Trp-Leu-Arg-Lys-Lys-Leu-Gln-Asp-Val -His-Asn-Phe-Lys6-OH] |  | 0.0012 | 9.63 | 37.4 | 55 | 0.783 | 0.015
